For 16 compounds, IC50 results are on record in patent US8980833B2, “Tubulysine derivatives” (priority 2007, dated 2015).

By IC50 is commonly meant the concentration at which inhibition is half-maximal.

Format in all cases: cell-based
In test [1] the test system is MCF-7 (breast) cells. As to the kind of experiment: MTS cell survival assay, MCF-7 (breast). The settings on record: read-out: IC50 cell line MCF-7. As to the method:
(§1) Seed 96-well plates at a concentration of 5000 cells/well in a volume of 100 μl with A2780 (ovarian), HT-29 (colon), MDA-MB-231 (breast), NCI-H1299 (non-small cell lung, MCF-7 (breast) cells or any other available cancer cell line. Incubate for 24 hours at 37° C.
(§2) Prepare a stock solution of Tubulysin derivative by dissolving at 10 mg/ml in methanol. Prepare dilutions of 1 mg/ml in methanol and 17 μg/ml (20 μM) in cell culture medium, and make serial 10-fold dilutions down to 2 pM in cell culture medium.
(§3) Add 100 μl of Tubulysin to triplicate wells for a final dose range of 1 pM to 10 μM. Reserve three wells for “untreated” cells and three wells of medium alone as a “blank”. Incubate plates at 37° C. for 48 hours.
(§4) Prepare MTS assay reagent by diluting CellTiter 96 AQueous One Solution (Promega) 5-fold into PBS/glucose (4.5 g/L). Aspirate cell culture medium. Aliquot 100 μl of MTS reagent to each well. Incubate at 37° C. for 1-2 hours depending on the cell line.
(§5) Shake the plates for 5 minutes and measure the absorbance at 485 nm using a plate reader (e.g. Tecan). Enter the raw data into an excel spreadsheet to obtain the % cell survival for each cell line. Graph dose (nM) vs. % cell survival and estimate IC50s from the graphs.
(§6) Use a 4-parameter logistic fit to obtain IC50 values: y=(a−d)/(1+(x/c)^b)+d • where • x=dose • y=% cell survival • a=lower asymptote • b=slope • c=IC50 • d=upper asymptote
(§7) Enter values for x and y. Estimate values for a, b, c, and d. Run the solver tool on the sum of squared errors cell. Minimize the sum of squared errors by varying parameters a through d. Obtain the IC50 (nM) from parameter c.
Background: Tetrazolium dyes change colour on reduction, which living cells bring about.

The test system of test [2] is A2780 (ovarian) cells. As to the kind of experiment: MTS cell survival assay, A2780 (ovarian). The settings on record: 48 hours incubation, read-out: IC50 cell line A2780. As for the experimental part: as §1, §2, §3, §4, §5, §6, §7
Test [3] concerns HT-29 (colon) cells. The experiment in a line: MTS cell survival assay, HT-29 (colon). The following applies: 48 hours incubation, read-out: IC50 cell line HT-29. As for the experimental part: as §1, §2, §3, §4, §5, §6, §7
Test [4] deals with NCI-H1299 (non-small cell lung) cells. As to the kind of experiment: MTS cell survival assay, NCI-H1299 (non-small cell lung). The settings on record: Homo sapiens, 48 hours incubation, read-out: IC50 cell line NCI-H1299. As for the experimental part: as §1, §2, §3, §4
Shake the plates for 5 minutes and measure the absorbance at 485 nm using a plate reader (e.g. Tecan). Enter the raw data into an excel spreadsheet to obtain the % cell survival for each cell line. Graph dose (nM) vs. % cell survival and estimate IC50s from the graphs. […]

The mark [5] stands for this setting: Homo sapiens, MCF7, 48 hours incubation.

The structures appear in SMILES notation. Where two headings read alike, the source gives them in different places.

As to `CC[C@H](C)C(NC(=O)C1CCCCN1C)C(=O)N(COC(=O)CC(C)C)[C@H](C[C@@H](OC(C)=O)c1nc(C(=O)N[C@@H](Cc2ccc(O)cc2)C[C@H](C)C(=O)O)cs1)C(C)C` (stereo partly shown), the IC50 in test [1] (48 hours incubation) came to 0.6 nM; in test [2], 0.8 nM; in test [3], 0.75 nM.

`CC[C@H](C)C(NC(=O)C1CCCCN1C)C(=O)N(C)[C@H](C[C@@H](OC(C)=O)c1nc(C(=O)N[C@@H](Cc2ccc(F)cc2)C[C@H](C)C(=O)O)cs1)C(C)C` (stereo partly shown): the figures for the 50% inhibitory concentration (IC50) in test [2] (Homo sapiens), in test [3] (Homo sapiens) and in test [4] were 0.8 nM, 3 nM and 1.93 nM, respectively.

Regarding `CCCN(C(=O)C(NC(=O)C1CCCCN1C)[C@@H](C)CC)[C@H](C[C@@H](OC(C)=O)c1nc(C(=O)N[C@@H](Cc2ccc(F)cc2)C[C@H](C)C(=O)O)cs1)C(C)C` (stereo partly shown), the IC50 in test [1] (setting [5]) was 0.4 nM; in test [2] (Homo sapiens), 0.3 nM; in test [3] (Homo sapiens) it was 0.48 nM; in test [4], 0.52 nM.

`CCCCCCN(C(=O)C(NC(=O)C1CCCCN1C)[C@@H](C)CC)[C@H](C[C@@H](OC(C)=O)c1nc(C(=O)N[C@@H](Cc2ccc(OC)cc2)C[C@H](C)C(=O)O)cs1)C(C)C` (stereo partly shown): the IC50 in test [3] (Homo sapiens) came out at 0.43 nM.

For `CCCCCN(C(=O)C(NC(=O)C1CCCCN1C)[C@@H](C)CC)[C@H](C[C@@H](OC(C)=O)c1nc(C(=O)N[C@@H](Cc2ccc(F)cc2)C[C@H](C)C(=O)O)cs1)C(C)C` (stereo partly shown), the concentration for half-maximal inhibition (IC50) in test [1] (setting [5]) is 0.6 nM; in test [3] (Homo sapiens) it was 0.35 nM.

Turning to `CCCN(C(=O)C(NC(=O)C1CCCCN1C)[C@@H](C)CC)[C@H](C[C@@H](OC(C)=O)c1nc(C(=O)N[C@@H](Cc2ccc(-c3ccccc3)cc2)C[C@H](C)C(=O)O)cs1)C(C)C` (stereo partly shown), the IC50 stood at 0.4 nM in test [1] (setting [5]) and 0.28 nM in test [3] (Homo sapiens).

As to `CC[C@H](C)C(NC(=O)C1CCCN1C)C(=O)N(C)[C@H](C[C@@H](OC(C)=O)c1nc(C(=O)N[C@@H](Cc2ccc(F)cc2)C[C@H](C)C(=O)O)cs1)C(C)C` (stereo partly shown), the IC50 in test [1] (setting [5]) stood at 1.1 nM; in test [3] (Homo sapiens), 3.1 nM.

Regarding `CC[C@H](C)C(NC(=O)C1CCCN1C)C(=O)N(C)[C@H](C[C@@H](OC(C)=O)c1nc(C(=O)N[C@@H](Cc2ccc(N(C)C)cc2)C[C@H](C)C(=O)O)cs1)C(C)C` (stereo partly shown), the IC50 in test [2] (Homo sapiens) turned out to be 0.7 nM; in test [3] (Homo sapiens) it was 2.1 nM.

On to `CC[C@H](C)C(NC(=O)C1CCCCN1C)C(=O)N(C)[C@H](C[C@@H](OC(C)=O)c1nc(C(=O)N[C@@H](Cc2ccc(OC)cc2)C[C@H](C)C(=O)O)cs1)C(C)C` (stereo partly shown), for which the IC50 in test [1] (setting [5]) worked out at 0.6 nM; in test [2] (Homo sapiens), 0.8 nM; in test [3] (Homo sapiens), 2 nM.

Take `CC[C@H](C)C(NC(=O)C1CCCCN1C)C(=O)N(C)[C@H](C[C@@H](OC(C)=O)c1nc(C(=O)N[C@@H](Cc2ccc(-c3ccccc3)cc2)C[C@H](C)C(=O)O)cs1)C(C)C` (stereo partly shown): the figures for the IC50 in test [2] (Homo sapiens) and in test [3] (Homo sapiens) were 1.4 nM and 2.3 nM, respectively.

As to `CC[C@H](C)C(NC(=O)C1CCCCN1C)C(=O)N(COCC(C)C)[C@H](C[C@@H](OC(C)=O)c1nc(C(=O)N[C@@H](Cc2ccc(F)cc2)C[C@H](C)C(=O)O)cs1)C(C)C` (stereo partly shown), the values for the IC50 in test [1] (setting [5]), in test [2] (Homo sapiens) and in test [3] (Homo sapiens) were 1.1 nM, 0.9 nM and 3.5 nM, respectively.

As to `CCCN(C(=O)C(NC(=O)C1CCCCN1C)[C@@H](C)CC)[C@H](C[C@@H](OC(C)=O)c1nc(C(=O)N[C@H](CCC(=O)O)Cc2ccc(F)cc2)cs1)C(C)C` (stereo partly shown), the IC50 in test [2] (Homo sapiens) was 0.3 nM; in test [3] (Homo sapiens), 0.49 nM.

As for `CCCN(C(=O)C(NC(=O)C1CCCCN1C)[C@@H](C)CC)[C@H](CCc1nc(C(=O)N[C@H](CCC(=O)O)Cc2ccccc2)cs1)C(C)C` (stereo partly shown), the IC50 in test [2] (Homo sapiens) was determined as 1.1 nM; in test [3] (Homo sapiens) it was 3.1 nM.

For `CC(=O)O[C@H](C[C@H](C(C)C)N(COC(=O)c1ccccc1)C(=O)C(NC(=O)C1CCCCN1C)C(C)C)c1nc(C(=O)N[C@H](CCC(=O)O)Cc2ccc(F)cc2)cs1` (stereo partly shown), the IC50 in test [1] (setting [5]) is 0.4 nM; in test [3] (Homo sapiens) it was 0.45 nM.

`CC[C@H](C)C(NC(=O)C1CCCCN1C)C(=O)N(CC)[C@H](C[C@@H](O)c1nc(C(=O)N[C@H](CCN)Cc2ccc(F)cc2)cs1)C(C)C` (stereo partly shown): the IC50 in test [1] (setting [5]) came out at 15.2 nM; in test [3] (Homo sapiens), 23 nM.

For the compound `CCCN(C(=O)C(NC(=O)C1CCCCN1C)[C@@H](C)CC)[C@H](CCc1nc(C(=O)N[C@H](CCCO)Cc2ccccc2)cs1)C(C)C` (stereo partly shown), the IC50 was found to be 1.6 nM in test [2] (Homo sapiens) and 4.3 nM in test [3] (Homo sapiens).
